Results as given in the OligoGym collection.
“And” between values parts separate entries of the source, which are not always exact repeats. Equal entries are not always repeated. HELM strings list units from the 5' end as sugar, base in round brackets, then linkage (d deoxyribose, r ribose, m 2'-O-methyl, p phosphodiester). Methylation of C is not given here. [moe] = 2'-O-(2-methoxyethyl) (MOE); [cEt] = constrained ethyl (cEt); [sp] = phosphorothioate linkage

Target: HBV
Conditions: ASO

Substance: RNA1{[moe](A)[sp].[moe](G)[sp].[moe](G)[sp].[moe](T)[sp].d(G)[sp].d(A)[sp].d(A)[sp].d(G)[sp].d(C)[sp].d(G)[sp].d(A)[sp].d(A)[sp].d(G)[sp].[moe](T)[sp].[moe](G)[sp].[moe](C)[sp].[moe](A)}$$$$V2.0
- target mRNA inhibition (HepG2, 0.07 µM): 58% and 56%

Substance: RNA1{[moe](A)[sp].[moe](G)[sp].[moe](G)[sp].d(A)[sp].d(G)[sp].d(T)[sp].d(T)[sp].d(C)[sp].d(C)[sp].d(G)[sp].d(C)[sp].d(A)[sp].d(G)[sp].[cEt](T)[sp].[cEt](A)[sp].[cEt](T)}$$$$V2.0
- target mRNA inhibition (HepG2, 0.07 µM): 59% and 58%

Substance: RNA1{[moe](A)[sp].[moe](G)[sp].[moe](G)[sp].d(T)[sp].d(G)[sp].d(A)[sp].d(A)[sp].d(G)[sp].d(C)[sp].d(G)[sp].d(A)[sp].d(A)[sp].[moe](G)[sp].[moe](T)[sp].[moe](G)[sp].[moe](C)[sp].[moe](A)}$$$$V2.0
- target mRNA inhibition (HepG2, 0.07 µM): 77% and 71%

Substance: RNA1{[moe](A)[sp].[moe](G)[sp].[moe](G)[sp].d(T)[sp].d(G)[sp].d(A)[sp].d(A)[sp].d(G)[sp].d(C)[sp].d(G)[sp].d(A)[sp].d(A)[sp].[moe](G)[sp].[moe](T)[sp].[moe](G)[sp].[moe](C)}$$$$V2.0
- target mRNA inhibition (HepG2, 0.07 µM): 68% and 58%

Substance: RNA1{[moe](A)[sp].[moe](G)[sp].[moe](T)[sp].[moe](T)[sp].[moe](C)[sp].d(C)[sp].d(G)[sp].d(C)[sp].d(A)[sp].d(G)[sp].d(T)[sp].d(A)[sp].d(T)[sp].d(G)[sp].[moe](G)[sp].[moe](A)}$$$$V2.0
- target mRNA inhibition (HepG2, 0.07 µM): 61% and 40%

Substance: RNA1{[moe](A)[sp].[moe](G)[sp].[moe](T)[sp].d(T)[sp].d(C)[sp].d(C)[sp].d(G)[sp].d(C)[sp].d(A)[sp].d(G)[sp].d(T)[sp].d(A)[sp].[moe](T)[sp].[moe](G)[sp].[moe](G)[sp].[moe](A)[sp].[moe](T)}$$$$V2.0
- target mRNA inhibition (HepG2, 0.07 µM): 60% and 64%

Substance: RNA1{[moe](A)[sp].[moe](G)[sp].d(C)[sp].d(G)[sp].d(A)[sp].d(A)[sp].d(G)[sp].d(T)[sp].d(G)[sp].d(C)[sp].d(A)[sp].[moe](C)[sp].[moe](A)[sp].[moe](C)[sp].[moe](G)[sp].[moe](G)}$$$$V2.0
- target mRNA inhibition (HepG2, 0.0092593 µM): 0%
- target mRNA inhibition (HepG2, 0.0277778 µM): 30%
- target mRNA inhibition (HepG2, 0.07 µM): 79% and 73%
- target mRNA inhibition (HepG2, 0.0833333 µM): 72%
- target mRNA inhibition (HepG2, 0.25 µM): 84%

Substance: RNA1{[moe](A)[sp].[moe](G)[sp].d(G)[sp].d(C)[sp].d(A)[sp].d(T)[sp].d(A)[sp].d(G)[sp].d(C)[sp].d(A)[sp].d(G)[sp].[moe](C)[sp].[moe](A)[sp].[moe](G)[sp].[moe](G)[sp].[moe](A)}$$$$V2.0
- target mRNA inhibition (HepG2, 0.07 µM): 57% and 51%

Substance: RNA1{[moe](A)[sp].[moe](T)[sp].[moe](G)[sp].[moe](A)[sp].[moe](G)[sp].d(G)[sp].d(C)[sp].d(A)[sp].d(T)[sp].d(A)[sp].d(G)[sp].d(C)[sp].d(A)[sp].d(G)[sp].[moe](C)[sp].[moe](A)[sp].[moe](G)}$$$$V2.0
- target mRNA inhibition (HepG2, 0.07 µM): 50% and 44%

Substance: RNA1{[moe](A)[sp].[moe](T)[sp].[moe](G)[sp].[moe](A)[sp].[moe](G)[sp].d(G)[sp].d(C)[sp].d(A)[sp].d(T)[sp].d(A)[sp].d(G)[sp].d(C)[sp].d(A)[sp].d(G)[sp].[moe](C)[sp].[moe](A)}$$$$V2.0
- target mRNA inhibition (HepG2, 0.07 µM): 52% and 56%

Substance: RNA1{[moe](A)[sp].[moe](T)[sp].[moe](G)[sp].d(A)[sp].d(G)[sp].d(G)[sp].d(C)[sp].d(A)[sp].d(T)[sp].d(A)[sp].d(G)[sp].d(C)[sp].[moe](A)[sp].[moe](G)[sp].[moe](C)[sp].[moe](A)}$$$$V2.0
- target mRNA inhibition (HepG2, 0.07 µM): 53% and 44%

Substance: RNA1{[moe](A)[sp].[moe](T)[sp].[moe](T)[sp].[cEt](T)[sp].[cEt](A)[sp].d(T)[sp].d(G)[sp].d(C)[sp].d(C)[sp].d(T)[sp].d(A)[sp].d(C)[sp].[cEt](A)[sp].[cEt](G)[sp].[moe](C)[sp].[moe](C)[sp].[moe](T)}$$$$V2.0
- target mRNA inhibition (HepG2, 0.009375 µM): 4%
- target mRNA inhibition (HepG2, 0.01875 µM): 30%
- target mRNA inhibition (HepG2, 0.0375 µM): 44%
- target mRNA inhibition (HepG2, 0.075 µM): 52%
- target mRNA inhibition (HepG2, 0.15 µM): 67%
- target mRNA inhibition (HepG2, 0.3 µM): 76%

Substance: RNA1{[moe](A)[sp].[moe](T)[sp].[moe](T)[sp].[moe](T)[sp].[moe](A)[sp].d(T)[sp].d(G)[sp].d(C)[sp].d(C)[sp].d(T)[sp].d(A)[sp].d(C)[sp].d(A)[sp].d(G)[sp].[moe](C)[sp].[moe](C)}$$$$V2.0
- target mRNA inhibition (HepG2, 0.07 µM): 47% and 41%

Substance: RNA1{[moe](A)[sp].[moe](T)[sp].[moe](T)[sp].[moe](T)[sp].d(A)[sp].d(T)[sp].d(G)[sp].d(C)[sp].d(C)[sp].d(T)[sp].d(A)[sp].d(C)[sp].d(A)[sp].[moe](G)[sp].[moe](C)[sp].[moe](C)[sp].[moe](T)}$$$$V2.0
- target mRNA inhibition (HepG2, 0.07 µM): 58% and 42%

Substance: RNA1{[moe](A)[sp].[moe](T)[sp].[moe](T)[sp].d(T)[sp].d(A)[sp].d(T)[sp].d(G)[sp].d(C)[sp].d(C)[sp].d(T)[sp].d(A)[sp].d(C)[sp].[moe](A)[sp].[moe](G)[sp].[moe](C)[sp].[moe](C)}$$$$V2.0
- target mRNA inhibition (HepG2, 0.07 µM): 38% and 47%

Substance: RNA1{[moe](A)[sp].[moe](T)[sp].d(G)[sp].d(A)[sp].d(G)[sp].d(G)[sp].d(C)[sp].d(A)[sp].d(T)[sp].d(A)[sp].d(G)[sp].[moe](C)[sp].[moe](A)[sp].[moe](G)[sp].[moe](C)[sp].[moe](A)}$$$$V2.0
- target mRNA inhibition (HepG2, 0.07 µM): 53% and 32%

Substance: RNA1{[moe](A)[sp].[moe](T)[sp].d(T)[sp].d(T)[sp].d(A)[sp].d(T)[sp].d(G)[sp].d(C)[sp].d(C)[sp].d(T)[sp].d(A)[sp].[moe](C)[sp].[moe](A)[sp].[moe](G)[sp].[moe](C)[sp].[moe](C)[sp].[moe](T)}$$$$V2.0
- target mRNA inhibition (HepG2, 0.0092593 µM): 0%
- target mRNA inhibition (HepG2, 0.0277778 µM): 21%
- target mRNA inhibition (HepG2, 0.07 µM): 71% and 65%
- target mRNA inhibition (HepG2, 0.0833333 µM): 22%
- target mRNA inhibition (HepG2, 0.25 µM): 53%

Substance: RNA1{[moe](A)[sp].[moe](T)[sp].d(T)[sp].d(T)[sp].d(A)[sp].d(T)[sp].d(G)[sp].d(C)[sp].d(C)[sp].d(T)[sp].d(A)[sp].[moe](C)[sp].[moe](A)[sp].[moe](G)[sp].[moe](C)[sp].[moe](C)}$$$$V2.0
- target mRNA inhibition (HepG2, 0.07 µM): 36% and 25%

Substance: RNA1{[moe](C)[sp].[cEt](A)[sp].[cEt](C)[sp].d(T)[sp].d(A)[sp].d(G)[sp].d(T)[sp].d(A)[sp].d(A)[sp].d(A)[sp].d(C)[sp].d(T)[sp].d(G)[sp].[cEt](A)[sp].[cEt](G)[sp].[moe](C)}$$$$V2.0
- target mRNA inhibition (HepG2, 0.07 µM): 73% and 71%

Substance: RNA1{[moe](C)[sp].[cEt](A)[sp].[cEt](C)[sp].d(T)[sp].d(G)[sp].d(A)[sp].d(A)[sp].d(C)[sp].d(A)[sp].d(A)[sp].d(A)[sp].d(T)[sp].d(G)[sp].[cEt](G)[sp].[cEt](C)[sp].[moe](A)}$$$$V2.0
- target mRNA inhibition (HepG2, 0.07 µM): 65% and 75%

Substance: RNA1{[moe](C)[sp].[cEt](A)[sp].[cEt](G)[sp].d(C)[sp].d(A)[sp].d(A)[sp].d(A)[sp].d(C)[sp].d(A)[sp].d(C)[sp].d(T)[sp].d(T)[sp].d(G)[sp].[cEt](G)[sp].[cEt](C)[sp].[moe](A)}$$$$V2.0
- target mRNA inhibition (HepG2, 0.07 µM): 62% and 61%

Substance: RNA1{[moe](C)[sp].[cEt](C)[sp].d(A)[sp].d(A)[sp].d(T)[sp].d(T)[sp].d(T)[sp].d(A)[sp].d(T)[sp].d(G)[sp].d(C)[sp].d(C)[sp].[cEt](T)[sp].[moe](A)[sp].[cEt](C)[sp].[moe](A)}$$$$V2.0
- target mRNA inhibition (HepG2, 0.07 µM): 37% and 55%

Substance: RNA1{[moe](C)[sp].[cEt](C)[sp].d(A)[sp].d(C)[sp].d(T)[sp].d(G)[sp].d(A)[sp].d(A)[sp].d(C)[sp].d(A)[sp].d(A)[sp].d(A)[sp].[cEt](T)[sp].[moe](G)[sp].[cEt](G)[sp].[moe](C)}$$$$V2.0
- target mRNA inhibition (HepG2, 0.07 µM): 76% and 78%

Substance: RNA1{[moe](C)[sp].[cEt](G)[sp].d(A)[sp].d(A)[sp].d(C)[sp].d(C)[sp].d(A)[sp].d(C)[sp].d(T)[sp].d(G)[sp].d(A)[sp].d(A)[sp].[cEt](C)[sp].[moe](A)[sp].[cEt](A)[sp].[moe](A)}$$$$V2.0
- target mRNA inhibition (HepG2, 0.07 µM): 45% and 49%

Substance: RNA1{[moe](C)[sp].[cEt](G)[sp].d(C)[sp].d(A)[sp].d(G)[sp].d(T)[sp].d(A)[sp].d(T)[sp].d(G)[sp].d(G)[sp].d(A)[sp].d(T)[sp].[cEt](C)[sp].[moe](G)[sp].[cEt](G)[sp].[moe](C)}$$$$V2.0
- target mRNA inhibition (HepG2, 0.0092593 µM): 22%
- target mRNA inhibition (HepG2, 0.0277778 µM): 49%
- target mRNA inhibition (HepG2, 0.07 µM): 83% and 92%
- target mRNA inhibition (HepG2, 0.0833333 µM): 82%
- target mRNA inhibition (HepG2, 0.25 µM): 91%

Substance: RNA1{[moe](C)[sp].[cEt](T)[sp].[cEt](A)[sp].d(G)[sp].d(T)[sp].d(A)[sp].d(A)[sp].d(A)[sp].d(C)[sp].d(T)[sp].d(G)[sp].d(A)[sp].d(G)[sp].[cEt](C)[sp].[cEt](C)[sp].[moe](A)}$$$$V2.0
- target mRNA inhibition (HepG2, 0.0092593 µM): 33%
- target mRNA inhibition (HepG2, 0.0277778 µM): 49%
- target mRNA inhibition (HepG2, 0.07 µM): 76% and 71%
- target mRNA inhibition (HepG2, 0.0833333 µM): 71%
- target mRNA inhibition (HepG2, 0.25 µM): 88%

Substance: RNA1{[moe](C)[sp].[cEt](T)[sp].[cEt](G)[sp].d(A)[sp].d(G)[sp].d(G)[sp].d(C)[sp].d(C)[sp].d(C)[sp].d(A)[sp].d(C)[sp].d(T)[sp].d(C)[sp].[cEt](C)[sp].[cEt](C)[sp].[moe](A)}$$$$V2.0
- target mRNA inhibition (HepG2, 0.0092593 µM): 58%
- target mRNA inhibition (HepG2, 0.0277778 µM): 83%
- target mRNA inhibition (HepG2, 0.07 µM): 59% and 84%
- target mRNA inhibition (HepG2, 0.0833333 µM): 90%
- target mRNA inhibition (HepG2, 0.25 µM): 90%

Substance: RNA1{[moe](C)[sp].[cEt](T)[sp].[cEt](G)[sp].d(G)[sp].d(A)[sp].d(G)[sp].d(C)[sp].d(C)[sp].d(A)[sp].d(C)[sp].d(C)[sp].d(A)[sp].d(G)[sp].[cEt](C)[sp].[cEt](A)[sp].[moe](G)}$$$$V2.0
- target mRNA inhibition (HepG2, 0.07 µM): 60% and 45%

Substance: RNA1{[moe](C)[sp].[moe](A)[sp].[moe](A)[sp].[moe](T)[sp].d(T)[sp].d(T)[sp].d(A)[sp].d(T)[sp].d(G)[sp].d(C)[sp].d(C)[sp].d(T)[sp].d(A)[sp].[moe](C)[sp].[moe](A)[sp].[moe](G)[sp].[moe](C)}$$$$V2.0
- target mRNA inhibition (HepG2, 0.07 µM): 34% and 25%
